Measured values as given in US20250163052A1, “cGAS INHIBITORS AND USES THEREOF” (Cornell University, priority 2022, published 2025).
Read-outs that look alike come from different tables or passages of the source.

Experiments:
[1] = target: PDE4D2 (Homo sapiens, UniProt Q08499); test: Safety panel screening, PDE4D2 IMAP; type: biochemical; details: read-out: Mean percentage inhibition (%) at 10 μM, PDE4D2
[2] = Pharmacokinetic study, plasma and brain PK parameters after I.P. dosing; type: in vivo, mouse; details: 25 mg/Kg I.P.; for Kp / AUC(0-inf) / AUC(0-t) / MRT inf / half-life / Tmax / Cmax: mouse, ip; for Kp: brain/plasma, 25 mg/kg
Protocol: To test pharmacokinetics, TDI-6570 ([…] solution in water containing 0.2% Tween 80) was administered to 8-weeks old CD-1 male mice (n=3 for each time point) intraperitoneally (IP) and both plasma (EDTA-K2) and brain tissues were collected at various time points (0.5, 2, 4, 8 and 24 hours post drug administration). Transcardial perfusion were performed with saline prior to brain collection. Bioanalysis of brain tissue and plasma extracts were performed by LC-MS/MS.

[3] = target: SET (Homo sapiens, UniProt P31645); test: Safety panel screening, serotonin transporter neurotransmitter uptake; type: cell-based; details: read-out: Mean percentage inhibition (%) at 10 μM, SET
Sequence of SET (P31645 whole entry): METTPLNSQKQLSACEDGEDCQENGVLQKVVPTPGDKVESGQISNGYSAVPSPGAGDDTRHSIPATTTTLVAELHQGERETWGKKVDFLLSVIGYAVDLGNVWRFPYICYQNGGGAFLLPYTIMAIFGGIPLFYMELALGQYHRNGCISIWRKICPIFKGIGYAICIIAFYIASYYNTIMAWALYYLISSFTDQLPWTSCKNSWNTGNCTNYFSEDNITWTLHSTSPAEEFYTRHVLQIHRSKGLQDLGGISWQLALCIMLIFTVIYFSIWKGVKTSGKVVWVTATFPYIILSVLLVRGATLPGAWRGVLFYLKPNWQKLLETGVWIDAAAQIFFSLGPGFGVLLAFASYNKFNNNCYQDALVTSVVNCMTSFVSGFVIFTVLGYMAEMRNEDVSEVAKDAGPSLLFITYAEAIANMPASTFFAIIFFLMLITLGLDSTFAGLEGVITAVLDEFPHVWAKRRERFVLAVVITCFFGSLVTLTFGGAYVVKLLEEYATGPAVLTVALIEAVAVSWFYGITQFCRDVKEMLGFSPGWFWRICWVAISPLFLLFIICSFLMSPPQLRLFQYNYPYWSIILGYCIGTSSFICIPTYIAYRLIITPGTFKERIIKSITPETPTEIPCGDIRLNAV

[4] = target: hERG (Homo sapiens, UniProt Q12809); test: Safety panel screening, hERG automated patch clamp; type: cell-based; details: read-out: Mean percentage inhibition (%) at 10 μM, hERG
Sequence of hERG (Q12809 whole entry): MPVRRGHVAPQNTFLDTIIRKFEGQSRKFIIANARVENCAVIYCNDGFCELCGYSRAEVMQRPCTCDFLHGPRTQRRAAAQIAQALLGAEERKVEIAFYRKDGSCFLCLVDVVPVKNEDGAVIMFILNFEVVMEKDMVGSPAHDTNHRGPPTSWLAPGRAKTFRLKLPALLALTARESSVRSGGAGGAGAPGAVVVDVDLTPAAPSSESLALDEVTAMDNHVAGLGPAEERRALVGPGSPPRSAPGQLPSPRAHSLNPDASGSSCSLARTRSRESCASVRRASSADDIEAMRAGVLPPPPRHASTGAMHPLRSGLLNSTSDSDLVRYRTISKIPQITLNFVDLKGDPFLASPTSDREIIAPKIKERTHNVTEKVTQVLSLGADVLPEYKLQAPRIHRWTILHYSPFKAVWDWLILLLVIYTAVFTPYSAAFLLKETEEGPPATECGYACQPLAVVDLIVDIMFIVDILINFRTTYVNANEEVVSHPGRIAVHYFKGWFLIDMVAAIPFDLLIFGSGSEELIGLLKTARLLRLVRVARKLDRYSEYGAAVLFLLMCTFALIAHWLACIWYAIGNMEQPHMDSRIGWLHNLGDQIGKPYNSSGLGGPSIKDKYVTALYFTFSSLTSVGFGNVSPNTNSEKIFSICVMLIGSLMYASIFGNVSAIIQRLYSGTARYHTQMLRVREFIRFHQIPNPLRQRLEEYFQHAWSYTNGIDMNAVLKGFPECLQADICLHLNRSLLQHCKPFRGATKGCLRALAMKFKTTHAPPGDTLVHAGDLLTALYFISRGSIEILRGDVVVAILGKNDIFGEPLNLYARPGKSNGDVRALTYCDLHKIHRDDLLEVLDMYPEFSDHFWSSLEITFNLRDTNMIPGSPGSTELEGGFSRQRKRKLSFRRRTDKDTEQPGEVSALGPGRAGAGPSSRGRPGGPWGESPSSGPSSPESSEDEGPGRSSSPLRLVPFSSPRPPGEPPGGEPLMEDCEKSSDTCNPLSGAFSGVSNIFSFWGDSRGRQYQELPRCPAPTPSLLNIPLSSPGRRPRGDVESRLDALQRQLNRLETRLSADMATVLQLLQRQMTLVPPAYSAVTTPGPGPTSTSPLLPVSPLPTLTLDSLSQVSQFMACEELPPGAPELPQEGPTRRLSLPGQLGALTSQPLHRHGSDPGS

[5] = test system: THP1 cells; test: THP1-Dual cells, cell viability (CellTiter-Glo); type: cell-based
How it was run: (§1)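 THP1-Dual cells were treated with compounds at various dilutions for 4 h, then transfected with DNA (2 ug/ml) using lipofectamine and incubated overnight. Supernatant Ifnb reporter was read with Quantiluc and nfkb reporter with Quantiblue; viability was measured by CellTiter-Glo.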

[6] = test system: NFkB-SEAP; test: THP1-Dual cells transfected with DNA, nfkb expression (Quantiblue); type: cell-based; details: Homo sapiens; for inhibition at 10 µM: THP-1, 10 μM; for inhibition at 30 µM: THP-1, 30 μM
How it was run: as §1

[7] = test system: IFNB; test: THP1-Dual cells transfected with DNA, Ifnb expression (Quantiluc); type: cell-based; details: Homo sapiens; for inhibition at 10 µM: THP-1, 10 μM; for inhibition at 30 µM: THP-1, 30 μM
How it was run: as §1

[8] = target: D1 (Homo sapiens, UniProt P21728); test: Safety panel screening, D1 cAMP assay; type: cell-based; details: for inhibition at 10 µM: antagonist mode, read-out: Antagonist Mode Mean percentage inhibition (%) at 10 μM, D1
Sequence of D1 (P21728 whole entry): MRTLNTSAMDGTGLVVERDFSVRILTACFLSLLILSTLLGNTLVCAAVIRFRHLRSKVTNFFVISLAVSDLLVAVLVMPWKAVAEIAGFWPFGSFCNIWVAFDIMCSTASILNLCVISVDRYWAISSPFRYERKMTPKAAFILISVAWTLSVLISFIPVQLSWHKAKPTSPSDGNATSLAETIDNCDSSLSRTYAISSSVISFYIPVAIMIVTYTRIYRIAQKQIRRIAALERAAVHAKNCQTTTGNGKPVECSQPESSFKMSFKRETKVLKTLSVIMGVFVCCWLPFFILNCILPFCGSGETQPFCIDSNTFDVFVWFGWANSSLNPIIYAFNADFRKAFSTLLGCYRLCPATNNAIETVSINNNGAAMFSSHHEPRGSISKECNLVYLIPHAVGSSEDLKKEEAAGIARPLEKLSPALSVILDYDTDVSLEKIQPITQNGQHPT

[9] = target: m-cGAS (Mus musculus, UniProt Q8C6L5); test: Cell-free mouse cGAS enzyme inhibition assay (ATP depletion, Kinase-Glo Max); type: biochemical; details: 1 h; for inhibition at 10 µM: read-out: m-cGAS, conc. 10 μM
Sequence of m-cGAS (Q8C6L5 whole entry): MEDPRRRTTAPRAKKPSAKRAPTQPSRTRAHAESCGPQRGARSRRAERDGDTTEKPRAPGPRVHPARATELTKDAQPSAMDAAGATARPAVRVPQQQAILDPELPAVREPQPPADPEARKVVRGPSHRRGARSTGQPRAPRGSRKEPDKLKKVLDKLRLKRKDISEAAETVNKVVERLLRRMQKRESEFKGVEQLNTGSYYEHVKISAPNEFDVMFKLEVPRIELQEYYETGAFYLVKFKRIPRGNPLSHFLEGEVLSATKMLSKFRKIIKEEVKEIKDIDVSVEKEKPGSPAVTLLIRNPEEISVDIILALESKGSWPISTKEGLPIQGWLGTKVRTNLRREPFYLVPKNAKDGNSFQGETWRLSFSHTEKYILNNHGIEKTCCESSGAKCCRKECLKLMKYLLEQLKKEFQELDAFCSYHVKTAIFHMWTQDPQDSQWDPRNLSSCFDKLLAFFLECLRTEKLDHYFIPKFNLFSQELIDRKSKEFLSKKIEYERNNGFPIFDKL

[10] = target: 5HT2B (Homo sapiens, UniProt P41595); test: Safety panel screening, 5HT2B Ca2+ mobilization; type: cell-based; details: for inhibition at 10 µM: antagonist mode, read-out: Antagonist Mode Mean percentage inhibition (%) at 10 μM, 5HT2B
Sequence of 5HT2B (P41595 whole entry, species assumed): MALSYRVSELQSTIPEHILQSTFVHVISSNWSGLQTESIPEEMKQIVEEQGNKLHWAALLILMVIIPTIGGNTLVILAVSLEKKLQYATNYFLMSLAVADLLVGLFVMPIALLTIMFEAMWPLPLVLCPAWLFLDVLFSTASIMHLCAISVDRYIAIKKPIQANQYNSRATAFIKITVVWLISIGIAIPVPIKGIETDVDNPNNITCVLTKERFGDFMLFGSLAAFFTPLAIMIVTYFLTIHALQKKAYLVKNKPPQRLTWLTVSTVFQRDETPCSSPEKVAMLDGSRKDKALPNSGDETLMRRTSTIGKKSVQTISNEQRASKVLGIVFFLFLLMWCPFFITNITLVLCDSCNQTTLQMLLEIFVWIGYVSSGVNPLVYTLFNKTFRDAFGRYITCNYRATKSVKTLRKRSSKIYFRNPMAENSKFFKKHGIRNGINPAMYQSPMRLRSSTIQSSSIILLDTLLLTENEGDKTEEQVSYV

[11] = Protein binding in mouse brain homogenates; type: in vitro ADME; details: for recovery at 6 h / fraction unbound at 6 hr: brain homogenate; for fraction unbound at 6 hr: read-out: % BoundBrain (converted)
[12] = target: h-cGAS (Homo sapiens, UniProt Q8N884); test: Cell-free human cGAS enzyme inhibition assay (ATP depletion, Kinase-Glo Max); type: biochemical; details: 3 h; for inhibition at 10 µM: read-out: h-cGAS, conc. 10 μM
Sequence of h-cGAS (Q8N884 whole entry): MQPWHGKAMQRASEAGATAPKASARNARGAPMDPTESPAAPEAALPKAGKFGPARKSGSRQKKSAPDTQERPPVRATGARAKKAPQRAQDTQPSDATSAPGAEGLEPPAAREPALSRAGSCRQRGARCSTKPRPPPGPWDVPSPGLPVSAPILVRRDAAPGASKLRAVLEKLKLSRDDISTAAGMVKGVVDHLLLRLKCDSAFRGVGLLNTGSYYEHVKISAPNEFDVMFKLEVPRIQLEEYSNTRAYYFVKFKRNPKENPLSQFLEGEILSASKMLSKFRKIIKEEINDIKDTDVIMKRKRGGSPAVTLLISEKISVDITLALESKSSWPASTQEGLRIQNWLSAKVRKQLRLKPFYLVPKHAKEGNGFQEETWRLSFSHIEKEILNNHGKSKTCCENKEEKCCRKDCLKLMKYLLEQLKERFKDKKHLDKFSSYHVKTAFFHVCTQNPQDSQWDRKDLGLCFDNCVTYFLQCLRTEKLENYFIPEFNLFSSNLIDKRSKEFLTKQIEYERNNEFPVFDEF

[13] = Metabolic stability in mouse liver microsomes
[14] = read-out: AUClast Ratio (brain/plasma)
[15] = read-out: Cmax Ratio (brain/plasma)
[16] = brain, read-out: AUCInf (Brain)
[17] = brain, read-out: AUClast (Brain)
[18] = brain, read-out: MRTInf_obs (Brain)
[19] = brain, read-out: T1/2 (Brain) (converted)
[20] = plasma, read-out: AUCInf (plasma)
[21] = plasma, read-out: AUClast (plasma)
[22] = plasma, read-out: MRTInf_obs (plasma)
[23] = plasma, read-out: T1/2 (plasma) (converted)
[24] = plasma, read-out: Tmax (plasma)

Sequence of PDE4D2 (Q08499 303-809): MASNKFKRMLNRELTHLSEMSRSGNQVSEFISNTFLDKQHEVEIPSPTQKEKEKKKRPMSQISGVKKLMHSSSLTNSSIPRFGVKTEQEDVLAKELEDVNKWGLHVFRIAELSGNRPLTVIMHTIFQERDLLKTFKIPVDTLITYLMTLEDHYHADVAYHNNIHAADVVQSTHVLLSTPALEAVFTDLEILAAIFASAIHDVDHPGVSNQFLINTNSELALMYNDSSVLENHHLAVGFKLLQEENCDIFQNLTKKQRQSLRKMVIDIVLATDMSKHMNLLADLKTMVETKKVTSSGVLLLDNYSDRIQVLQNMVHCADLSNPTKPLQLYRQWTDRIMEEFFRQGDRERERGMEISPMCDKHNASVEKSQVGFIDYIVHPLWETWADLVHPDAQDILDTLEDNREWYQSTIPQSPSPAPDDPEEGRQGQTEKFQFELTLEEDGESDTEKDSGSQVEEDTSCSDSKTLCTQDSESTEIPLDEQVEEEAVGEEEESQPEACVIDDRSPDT

With `O=C(CO)N1CCc2c(sc3c(Cl)c(Cl)cc(-c4cn[nH]c4)c23)C1` [Compound 63] as the compound, how does the inhibition at 10 µM [1] read?
The inhibition at 10 µM was 73.2%.

And the “AUC_%Extrap_obs (Brain)” value ([2]; brain)?
The value was 1.62%.

And the “AUClast/D (Brain)” value ([2]; brain)?
The value was 1354 mg·h/mL.

What about the “Cmax (Brain)” value ([2]; brain) of the same compound?
Its value is 3721 ng/mL.

What about the Kp [2, 14] of the same compound?
The Kp was 0.989.

What about the Kp [2, 15] of the same compound?
The Kp was 0.734.

And the AUC(0-inf) [2, 16]?
Its AUC(0-inf) is 34400 ng·h/mL.

What about the AUC(0-t) [2, 17] of the same compound?
The AUC(0-t) was 33900 ng·h/mL.

And the MRT inf [2, 18]?
Its MRT inf is 6.51 h.

What about the half-life [2, 19] of the same compound?
Its half-life is 232 min.

And the Tmax ([2]; brain, read-out: Tmax (Brain))?
Its Tmax is 4 h.

What about the Cmax ([2]; plasma) of the same compound?
The Cmax was 5070 ng/mL.

And the AUC(0-inf) [2, 20]?
Its AUC(0-inf) is 34300 ng·h/mL.

And the AUC(0-t) [2, 21]?
The AUC(0-t) was 34200 ng·h/mL.

What about the MRT inf [2, 22] of the same compound?
Its MRT inf is 4.76 h.

And the half-life [2, 23]?
The half-life was 287 min.

What about the Tmax [2, 24] of the same compound?
The Tmax was 2 h.

And the “AUC_%Extrap_obs (plasma)” value ([2]; plasma)?
The value was 0.0536%.

What about the “AUClast/D (plasma)” value ([2]; plasma) of the same compound?
The value was 1370 mg·h/mL.

And the inhibition at 10 µM [3]?
The inhibition at 10 µM was 15.2%.

And the inhibition at 10 µM [4]?
The inhibition at 10 µM was 49.7%.

What about the “Cell viability 10 μM” value [5] of the same compound?
The value was “+++ (+, ++, and +++ mean the compound respectively shows 25-49%; 50-74%; or 75-100% viability to cells)”.

And the “Cell viability 30 μM” value [5]?
Its value is “+++ (+, ++, and +++ mean the compound respectively shows 25-49%; 50-74%; or 75-100% viability to cells)”.

And the inhibition at 10 µM [6]?
The inhibition at 10 µM was 25 to 49%.

What about the inhibition at 30 µM [6] of the same compound?
The inhibition at 30 µM was 75 to 100%.

What about the inhibition at 10 µM [7] of the same compound?
Its inhibition at 10 µM is 50 to 74%.

And the inhibition at 30 µM [7]?
The inhibition at 30 µM was 75 to 100%.

And the “Agonist Mode Mean percentage activation (%) at 10 μM, D1” value [8]?
Its value is 6.19%.

What about the inhibition at 10 µM [8] of the same compound?
The inhibition at 10 µM was 3.08%.

And the inhibition at 1 µM ([9]; read-out: m-cGAS, conc. 1 μM)?
Its inhibition at 1 µM is 25 to 49%.

What about the inhibition at 10 µM [9] of the same compound?
The inhibition at 10 µM was 50 to 74%.

What about the “Agonist Mode Mean percentage activation (%) at 10 μM, 5HT2B” value [10] of the same compound?
The value was 22.36%.

What about the inhibition at 10 µM [10] of the same compound?
The inhibition at 10 µM was 49.4%.

What about the LogK [11] of the same compound?
The LogK was >4.72.

And the “% Remaining at 6 hr” value [11]?
Its value is 108.27%.

And the recovery at 6 h [11]?
Its recovery at 6 h is < 88.4%.

What about the fraction unbound at 6 hr [11] of the same compound?
Its fraction unbound at 6 hr is < 2e-05.

What about the inhibition at 10 µM [12] of the same compound?
Its inhibition at 10 µM is 25 to 49%.

For `Cn1cc(-c2cc(Cl)c(Cl)c3sc4c(c23)CN(C(=O)CO)CC4)cn1` [Compound 48], which inhibition at 10 µM [1] is on record?
The inhibition at 10 µM was 56.4%.

And the “AUC_%Extrap_obs (Brain)” value ([2]; brain)?
The value was 0.813%.

And the “AUClast/D (Brain)” value ([2]; brain)?
The value was 5081 mg·h/mL.

What about the “Cmax (Brain)” value ([2]; brain) of the same compound?
Its value is 19853 ng/mL.

What about the Kp [2, 14] of the same compound?
The Kp was 3.79.

What about the Kp [2, 15] of the same compound?
The Kp was 3.14.

And the AUC(0-inf) [2, 16]?
The AUC(0-inf) was 128000 ng·h/mL.

What about the AUC(0-t) [2, 17] of the same compound?
Its AUC(0-t) is 127000 ng·h/mL.

And the MRT inf [2, 18]?
The MRT inf was 4.69 h.

And the half-life [2, 19]?
Its half-life is 207 min.

And the Tmax ([2]; brain, read-out: Tmax (Brain))?
The Tmax was 2 h.

What about the Cmax ([2]; plasma) of the same compound?
Its Cmax is 6320 ng/mL.

And the AUC(0-inf) [2, 20]?
The AUC(0-inf) was 33500 ng·h/mL.

What about the AUC(0-t) [2, 21] of the same compound?
Its AUC(0-t) is 33500 ng·h/mL.

And the MRT inf [2, 22]?
Its MRT inf is 4.95 h.

What about the half-life [2, 23] of the same compound?
Its half-life is 272 min.

What about the Tmax [2, 24] of the same compound?
Its Tmax is 1 h.

And the “AUC_%Extrap_obs (plasma)” value ([2]; plasma)?
Its value is 0.0394%.

And the “AUClast/D (plasma)” value ([2]; plasma)?
The value was 1339 mg·h/mL.

And the “Remaining (NCF = 60 min)” value ([13]; mouse liver microsomes, 60 min, no co-factor (no NADPH))?
The value was 94.7%.

And the “Remaining (T = 60 min)” value ([13]; mouse liver microsomes, 60 min with NADPH)?
The value was 88.1%.

What about the CLint scaled ([13]; mouse, liver microsomes) of the same compound?
Its CLint scaled is 87.2 mL/min/kg.

And the half-life ([13]; mouse, liver microsomes)?
The half-life was 2 min.

And the microsomal CLint ([13]; mouse, liver microsomes)?
Its microsomal CLint is 679 µL/min/mg.

And the inhibition at 10 µM [3]?
The inhibition at 10 µM was 46.2%.

And the inhibition at 10 µM [4]?
Its inhibition at 10 µM is 63%.

And the “Cell viability 10 μM” value [5]?
The value was “+++ (+, ++, and +++ mean the compound respectively shows 25-49%; 50-74%; or 75-100% viability to cells)”.

And the “Cell viability 30 μM” value [5]?
The value was “+++ (+, ++, and +++ mean the compound respectively shows 25-49%; 50-74%; or 75-100% viability to cells)”.

What about the inhibition at 10 µM [6] of the same compound?
Its inhibition at 10 µM is < 24%.

What about the inhibition at 30 µM [6] of the same compound?
The inhibition at 30 µM was 50 to 74%.

What about the inhibition at 10 µM [7] of the same compound?
The inhibition at 10 µM was 25 to 49%.

What about the inhibition at 30 µM [7] of the same compound?
The inhibition at 30 µM was 50 to 74%.

And the “Agonist Mode Mean percentage activation (%) at 10 μM, D1” value [8]?
The value was 4.36%.

What about the inhibition at 10 µM [8] of the same compound?
The inhibition at 10 µM was 6.62%.

What about the inhibition at 10 µM [9] of the same compound?
Its inhibition at 10 µM is 0 to 24%.

And the “Agonist Mode Mean percentage activation (%) at 10 μM, 5HT2B” value [10]?
The value was −0.48%.

And the inhibition at 10 µM [10]?
Its inhibition at 10 µM is 34.5%.

And the LogK [11]?
Its LogK is >4.17.

What about the “% Remaining at 6 hr” value [11] of the same compound?
The value was 92.46%.

And the recovery at 6 h [11]?
Its recovery at 6 h is < 91.1%.

And the fraction unbound at 6 hr [11]?
Its fraction unbound at 6 hr is < 0.0001.

And the inhibition at 1 µM ([12]; read-out: h-cGAS, conc. 1 μM)?
The inhibition at 1 µM was 0 to 24%.

And the inhibition at 10 µM [12]?
The inhibition at 10 µM was 50 to 74%.
